These results are taken from ChEMBL document CHEMBL3396995, “Synthesis and biological evaluation of novel pyrrolidine acid analogs as potent dual PPARα/γ agonists” (Bioorg Med Chem Lett, 2015).

Data set [1] addresses T1, Peroxisome proliferator-activated receptor gamma (Homo sapiens, UniProt P37231).
T1 sequence (P37231 whole entry): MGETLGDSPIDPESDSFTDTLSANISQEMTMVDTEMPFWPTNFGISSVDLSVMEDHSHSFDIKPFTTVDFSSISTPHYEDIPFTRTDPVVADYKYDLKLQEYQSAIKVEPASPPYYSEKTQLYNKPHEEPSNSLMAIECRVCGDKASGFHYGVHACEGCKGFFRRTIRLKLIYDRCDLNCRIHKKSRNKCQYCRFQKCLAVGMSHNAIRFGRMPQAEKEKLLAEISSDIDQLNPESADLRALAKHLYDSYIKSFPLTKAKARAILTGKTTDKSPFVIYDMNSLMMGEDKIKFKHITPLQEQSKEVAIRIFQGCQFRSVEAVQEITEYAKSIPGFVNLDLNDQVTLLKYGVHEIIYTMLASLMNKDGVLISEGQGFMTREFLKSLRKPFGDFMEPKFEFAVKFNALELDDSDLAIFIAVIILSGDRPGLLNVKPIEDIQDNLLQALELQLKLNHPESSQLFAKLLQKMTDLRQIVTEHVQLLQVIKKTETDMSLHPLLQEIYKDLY
Kind of data set: Agonist activity at GAL4 tagged human PPARgamma ligand binding domain expressed in HEK293 cells by luciferase reporter gene assay. It is filed as cell-based. On the technique in general: Reporter assays use an easily measured gene product as a stand-in for the process of interest.

Data set [2] addresses T2, Peroxisome proliferator-activated receptor alpha (Homo sapiens, UniProt Q07869).
T2 sequence (Q07869 whole entry): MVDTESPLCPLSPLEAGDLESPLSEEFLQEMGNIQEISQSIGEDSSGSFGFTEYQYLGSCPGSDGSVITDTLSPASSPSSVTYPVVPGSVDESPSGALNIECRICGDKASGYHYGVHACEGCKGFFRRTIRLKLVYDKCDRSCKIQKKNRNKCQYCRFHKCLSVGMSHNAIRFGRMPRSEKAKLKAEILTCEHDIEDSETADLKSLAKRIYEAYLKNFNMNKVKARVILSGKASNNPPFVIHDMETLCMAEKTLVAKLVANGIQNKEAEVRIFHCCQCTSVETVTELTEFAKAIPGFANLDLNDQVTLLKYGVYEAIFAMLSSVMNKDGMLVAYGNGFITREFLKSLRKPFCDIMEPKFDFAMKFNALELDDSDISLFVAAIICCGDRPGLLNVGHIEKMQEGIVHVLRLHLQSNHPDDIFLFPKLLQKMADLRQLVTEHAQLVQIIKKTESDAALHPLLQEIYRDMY
The data set can be described thus: Binding affinity to PPARalpha (unknown origin) using fluorescein-tagged dual PPARalpha/gamma activator by homogeneous fluorescence polarization binding assay. (Fluorescence polarisation rises when a labelled molecule tumbles more slowly, as on binding a larger partner.)

Data set [3] has as its target T2, Peroxisome proliferator-activated receptor alpha. Kind of data set: Agonist activity at GAL4 tagged human PPARalpha ligand binding domain expressed in HEK293 cells by luciferase reporter gene assay. The following applies: read-out: EC50. It is filed as cell-based.
Data set [4] has as its target T1, Peroxisome proliferator-activated receptor gamma.
Description: (§1) Binding affinity to PPARgamma (unknown origin) using fluorescein-tagged dual PPARalpha/gamma activator by homogeneous fluorescence polarization binding assay
Data set [5] relates to Mus musculus. Kind of data set: Antidiabetic activity in db/db mouse assessed as reduction in fasting glucose level at 10 mg/kg, po dosed once daily for 14 days. Format: functional. The following applies: 336 h.
For data set [6], the system named is Mus musculus. Kind of data set: Lipid lowering activity in db/db mouse assessed as reduction in fasting triglyceride level at 10 mg/kg, po dosed once daily for 14 days. Format: functional. The conditions noted are these: 336 h.
For another data set, the target named is Cytochrome P450 2C9 (Homo sapiens, UniProt P11712). The data set can be described thus: Inhibition of CYP2C9 (unknown origin). It is filed as ADME.
The next data set deals with Cytochrome P450 2C19 (Homo sapiens, UniProt P33261). Kind of data set: Inhibition of CYP2C19 (unknown origin). It is filed as ADME.
The nature of data set [7]: Oral bioavailability in rat at 10 mg/kg. It is filed as ADME, organism-based. The following applies: in vivo.
In the next data set the test system is Rattus norvegicus. Kind of data set: Volume of distribution at steady state in rat at 10 mg/kg, po. Format: ADME, organism-based. On the set-up: dose 10 mg/kg, route oral. The following applies: in vivo.
Data set [8] in a line: Half life in rat at 10 mg/kg, po. Format: ADME, organism-based. On the set-up: dose 10 mg/kg, route oral. The conditions noted are these: in vivo.
Data set [9] deals with T1, Peroxisome proliferator-activated receptor gamma. The source holds these as a separate data set.
Description: as §1

Chain of Cytochrome P450 2C19 (P33261 whole entry): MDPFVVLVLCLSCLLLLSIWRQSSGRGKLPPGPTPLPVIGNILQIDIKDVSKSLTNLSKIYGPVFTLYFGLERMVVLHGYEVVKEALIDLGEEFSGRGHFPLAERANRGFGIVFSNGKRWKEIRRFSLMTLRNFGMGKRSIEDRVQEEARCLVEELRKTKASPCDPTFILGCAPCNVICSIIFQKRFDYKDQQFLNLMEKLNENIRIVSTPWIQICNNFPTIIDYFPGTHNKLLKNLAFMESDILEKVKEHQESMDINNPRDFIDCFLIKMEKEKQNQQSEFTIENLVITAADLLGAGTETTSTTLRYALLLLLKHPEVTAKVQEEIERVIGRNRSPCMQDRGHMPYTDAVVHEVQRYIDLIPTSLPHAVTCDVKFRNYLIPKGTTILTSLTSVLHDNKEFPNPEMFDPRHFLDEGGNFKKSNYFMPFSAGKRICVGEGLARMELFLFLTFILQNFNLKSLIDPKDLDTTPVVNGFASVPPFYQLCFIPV
Chain of Cytochrome P450 2C9 (P11712 whole entry): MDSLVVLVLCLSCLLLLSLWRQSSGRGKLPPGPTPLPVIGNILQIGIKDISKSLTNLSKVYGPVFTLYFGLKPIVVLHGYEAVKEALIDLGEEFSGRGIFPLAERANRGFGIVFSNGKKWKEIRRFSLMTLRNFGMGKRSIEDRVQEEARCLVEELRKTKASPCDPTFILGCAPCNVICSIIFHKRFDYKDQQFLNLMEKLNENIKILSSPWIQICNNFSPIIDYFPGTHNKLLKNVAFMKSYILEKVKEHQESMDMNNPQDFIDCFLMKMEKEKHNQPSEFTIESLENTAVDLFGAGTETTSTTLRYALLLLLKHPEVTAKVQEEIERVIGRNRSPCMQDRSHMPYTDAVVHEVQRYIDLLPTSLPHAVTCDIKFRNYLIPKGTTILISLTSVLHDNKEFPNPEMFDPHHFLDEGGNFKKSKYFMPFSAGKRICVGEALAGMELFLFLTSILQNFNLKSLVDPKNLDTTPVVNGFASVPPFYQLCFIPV

As a reminder, the EC50 is the concentration that produces a half-maximal response. Broadly, the IC50 is the midpoint of a concentration-inhibition curve. A low value points to greater potency. For `Cc1oc(-c2ccccc2)nc1CCOc1ccc(C[C@@H]2CN(C(=O)Oc3ccccc3)C[C@@H]2C(=O)O)cc1` (racemic), the half-maximal effective concentration (EC50) in [1] is 640 nM; in data set [3], 1 nM. Further, the IC50 turned out to be 610 nM in data set [2] and 80 nM in data set [4].

For orientation: inhibition in vivo means the change of the read-out against control, counted positive when it falls. As a reminder, the bioavailability is the share of a dose that reaches the circulation, judged against a reference dose that is usually intravenous. Lower therefore signals poor availability. A word on the half-life: it is how long it takes for the measured level to halve. A higher half-life goes with slow decline. On to `Cc1oc(-c2ccccc2)nc1CCOc1ccc(C[C@@H]2CN(c3nccc(C(F)(F)F)n3)C[C@@H]2C(=O)O)cc1`, for which the half-maximal effective concentration (EC50) in data set [1] was 30 nM; in data set [3], 90 nM. In addition, the IC50 turned out to be 960 nM in data set [2], 3200 nM on Cytochrome P450 2C9, 8800 nM on Cytochrome P450 2C19 and 20 nM in [9]. Further, the results for the inhibition in vivo at 10 mg/kg in the data set with Mus musculus [5] and in the data set on Mus musculus [6] were 37% and 48%, respectively. In addition, the bioavailability in data set [7] was found to be 65%. In the data set with Rattus norvegicus, the Vdss came to 0.47 L/kg. The same compound gave a half-life in data set [8] of 1.54 h.

Turning to `Cc1oc(-c2ccccc2)nc1CCOc1ccc(C[C@@H]2CN(C(=O)Oc3ccccc3)C[C@@H]2C(=O)O)cc1`, the 50% effective concentration (EC50) in [1] came to 30 nM; in data set [3] it was 5 nM. For the same compound, the 50% inhibitory concentration (IC50) in data set [2] was found to be 180 nM; in data set [9], 80 nM. The inhibition in vivo at 10 mg/kg stood at 30% with Mus musculus [5] and 12% in the data set on Mus musculus [6].

For `Cc1oc(-c2ccccc2)nc1CCOc1cccc(C[C@@H]2CN(c3ccccc3)C[C@@H]2C(=O)O)c1` (racemic), the figures for the EC50 in [1] and in data set [3] were 3410 nM and 20 nM, respectively. Besides, the results for the IC50 in data set [2] and in [9] were 40 nM and 220 nM, respectively.

`CCOC(=O)N1C[C@H](CC(=O)O)[C@H](c2cccc(OCCc3nc(-c4ccccc4)oc3C)c2)C1` (racemic): the EC50 in data set [1] is 20 nM; in [3] it was 1130 nM. The concentration for half-maximal inhibition (IC50) in [2] was determined as 990 nM; in data set [9] it was 910 nM.

For the compound `CCOC(=O)N1C[C@@H](CCc2cccc(OCCc3nc(-c4ccccc4)oc3C)c2)[C@@H](C(=O)O)C1` (racemic), the 50% effective concentration (EC50) in data set [1] came out at 710 nM; in data set [3], 200 nM. The concentration for half-maximal inhibition (IC50) in data set [2] is 2690 nM; in data set [9], 490 nM.

In the case of `CCOC(=O)N1C[C@@H](CCc2ccc(OCCc3nc(-c4ccccc4)oc3C)cc2)[C@@H](C(=O)O)C1` (racemic), the figures for the EC50 in [1] and in data set [3] were 540 nM and 20 nM, respectively. Also, the figures for the IC50 in data set [2] and in data set [9] were 3270 nM and 690 nM, respectively.

In the case of `Cc1oc(-c2ccccc2)nc1CCOc1ccc([C@H]2CN(C(=O)Oc3ccccc3)C[C@@H]2C(=O)O)cc1` (racemic), the EC50 worked out at 10 nM in data set [1] and 2580 nM in [3]. Moreover, the IC50 in [2] amounted to 2860 nM; in data set [9], 5860 nM.

As to `Cc1oc(-c2ccccc2)nc1CCOc1ccc(C[C@H]2CN(c3nccc(C(F)(F)F)n3)C[C@@H]2C(=O)O)cc1`, the figures for the EC50 in data set [1] and in [3] were more than 30000 nM and 1000 nM, respectively. In addition, the figures for the IC50 in data set [2] and in data set [9] were 1120 nM and 3570 nM, respectively.

As for `Cc1oc(-c2ccccc2)nc1CCOc1cccc(C[C@@H]2CN(C(=O)Oc3ccccc3)C[C@@H]2C(=O)O)c1`, the EC50 was 2000 nM in data set [1] and 4 nM in data set [3]. The values for the IC50 in data set [2] and in [9] were 70 nM and 490 nM, respectively.

For the compound `Cc1oc(-c2ccccc2)nc1CCOc1cccc(C[C@H]2CN(C(=O)Oc3ccccc3)C[C@@H]2C(=O)O)c1` (racemic), the concentration for a half-maximal effect (EC50) is 6170 nM in [1] and 2590 nM in [3]. Also, the IC50 in data set [2] was determined as 3090 nM; in data set [9] it was 3630 nM.

Regarding `CCOC(=O)N1C[C@@H](Cc2ccc(OCCc3nc(-c4ccccc4)oc3C)cc2)[C@@H](C(=O)O)C1` (racemic), the concentration giving a half-maximal response (EC50) in [1] is 300 nM; in [3], 6 nM. Besides, the IC50 came to 2020 nM in data set [2] and 2680 nM in [9].

With `Cc1oc(-c2ccccc2)nc1CCOc1cccc(C[C@@H]2CN(c3nccc(C(F)(F)F)n3)C[C@@H]2C(=O)O)c1`, the EC50 in data set [1] is 2500 nM; in data set [3] it was 14 nM. Besides, the half-inhibitory concentration (IC50) in data set [2] was determined as 20 nM; in data set [9], 40 nM.

In the case of `Cc1oc(-c2ccccc2)nc1CCOc1cccc([C@H]2CN(C(=O)Oc3ccccc3)C[C@@H]2CC(=O)O)c1` (racemic), the EC50 stood at 14600 nM in [1] and 11700 nM in [3]. The half-inhibitory concentration (IC50) in data set [2] was more than 10000 nM; in data set [9], 1820 nM.

For the compound `Cc1oc(-c2ccccc2)nc1CCOc1ccc([C@@H]2CN(C(=O)Oc3ccccc3)C[C@@H]2C(=O)O)cc1` (racemic), the concentration for a half-maximal effect (EC50) in [1] is 4180 nM; in data set [3], more than 15000 nM. Also, the IC50 in data set [2] was more than 10000 nM; in [9] it was 4470 nM.
